BindingDB's records for doi:10.1021/jm9802158 (Upjohn, 1998)
pKi: −log10 of the molar value.

How the values were obtained:
[1] = target: T1, Dimer of Gag-Pol polyprotein [489-587] (Human immunodeficiency virus 1, UniProt P12497); experiment: Protease Inhibition Assay; details: pH 5; 22 °C
T1 construct: 489-587
From the text: (§1) HIV-1 protease was purified and refolded from E. coli inclusion bodies. The substrate used spans the p17-p24 processing site (R-V-S-Q-N-Y-P-I-V-Q-N-K) and was derivatized with biotin and fluorescein isothiocyanate (FITC) at the amino and carboxy termini. In the presence of HIV-l protease, the substrate is rapidly cleaved into two parts. The biotinylated amino terminal fragment binds to the avidin beads while the FITC-containing carboxy1 terminal fragment is removed through the membrane. […] The bound fluorescence is obtained by processing on an IDEXX Screen Machine. Determination of Ki values with this assay requires analysis under conditions in which substrate concentration resides substantially below Km and the inhibitor concentrations greatly exceeds the Ki value and the enzyme concentration.

[2] = target: T2, Dimer of Gag-Pol polyprotein [489-587] (Human immunodeficiency virus 1, UniProt P04585); experiment: Protease Inhibition Assay; details: pH 5; 22 °C
T2 construct: 489-587
From the text: as §1

Compound	pKi [1]	pKi [2]
CCCC1(CCc2ccccc2)CC(=O)C(C(c2cccc(NS(=O)(=O)c3ccc(C#N)cc3)c2)C(C)(C)C)C(=O)O1 (stereo not given) [4-cyano-N-(3-{1-[4-hydroxy-2-oxo-6-(2-phenylethyl)-6-propyl-5,6-dihydro-2H-pyran-3-yl]-2,2-dimethylpropyl}phenyl)benzene-1-sulfonamide]	7.92	–
CCCC1(CCc2ccccc2)CC(=O)C(C(CC)c2cccc(NS(=O)(=O)c3ccc(C#N)cc3)c2)C(=O)O1 (stereo not given) [4-cyano-N-(3-{1-[4-hydroxy-2-oxo-6-(2-phenylethyl)-6-propyl-5,6-dihydro-2H-pyran-3-yl]propyl}phenyl)benzene-1-sulfonamide]	8.09	–
CCCC1(CCc2ccccc2)CC(=O)C(C(c2cccc(NS(=O)(=O)c3ccc(N)cn3)c2)C(C)(C)C)C(=O)O1 (stereo not given) [5-amino-N-(3-{1-[4-hydroxy-2-oxo-6-(2-phenylethyl)-6-propyl-5,6-dihydro-2H-pyran-3-yl]-2,2-dimethylpropyl}phenyl)pyridine-2-sulfonamide]	–	9.70
CCCC1(CCc2ccccc2)CC(=O)C(C(CC)c2cccc(NS(=O)(=O)c3ccc(C#N)cn3)c2)C(=O)O1 (stereo not given) [5-cyano-N-(3-{1-[4-hydroxy-2-oxo-6-(2-phenylethyl)-6-propyl-5,6-dihydro-2H-pyran-3-yl]propyl}phenyl)pyridine-2-sulfonamide]	–	10.00
CCCC1(CCc2ccccc2)CC(=O)C(C(c2cccc(NS(=O)(=O)c3ccc(C#N)cn3)c2)C(C)(C)C)C(=O)O1 (stereo not given) [N-(3-[1-(5,6-Dihydro-4-hydroxy-2-oxo-6-phenethyl-6-propyl-2H-pyran-3-yl)-2,2-dimethylpropyl]phenyl)-5-cycano-2-pyridinesulfonamide]	8.72	–
CCCC1(CCc2ccccc2)CC(=O)C(C(c2cccc(NS(=O)(=O)c3ccc(C(F)(F)F)cn3)c2)C(C)(C)C)C(=O)O1 (stereo not given) [N-(3-[1-(5,6-Dihydro-4-hydroxy-2-oxo-6-phenethyl-6-propyl-2H-pyran-3-yl)-2,2-dimethylpropyl]phenyl)-5-trifluoromethyl-2-pyridinesulfonamide]	8.37	–
CCCC1(CCc2ccccc2)CC(=O)C(Cc2cccc(NS(=O)(=O)c3cn(C)cn3)c2)C(=O)O1 (stereo not given) [N-(3-[1-(5,6-Dihydro-4-hydroxy-2-oxo-6-phenethyl-6-propyl-2H-pyran-3-yl)methyl]phenyl)-1-methyl-1H-imidazole-4-sulfonamide]	7.89	–
CCC(c1cccc(NS(=O)(=O)c2cn(C)cn2)c1)C1C(=O)CC(CCc2ccccc2)(CCc2ccccc2)OC1=O (stereo not given) [N-(3-{1-[4-hydroxy-2-oxo-6,6-bis(2-phenylethyl)-5,6-dihydro-2H-pyran-3-yl]propyl}phenyl)-1-methyl-1H-imidazole-4-sulfonamide]	9.00	–
CCCC1(CCc2ccccc2)CC(=O)C(C(c2cccc(NS(=O)(=O)c3ccc([N+](=O)[O-])cn3)c2)C(C)(C)C)C(=O)O1 (stereo not given) [N-(3-{1-[4-hydroxy-2-oxo-6-(2-phenylethyl)-6-propyl-5,6-dihydro-2H-pyran-3-yl]-2,2-dimethylpropyl}phenyl)-5-nitropyridine-2-sulfonamide]	8.64	–
CCCC1(CCc2ccccc2)CC(=O)C(C(CC)c2cccc(NS(=O)(=O)CCC)c2)C(=O)O1 (stereo not given) [N-(3-{1-[4-hydroxy-2-oxo-6-(2-phenylethyl)-6-propyl-5,6-dihydro-2H-pyran-3-yl]propyl}phenyl)propane-1-sulfonamide]	< 6.00	–
CCC(c1cccc(NS(=O)(=O)c2cn(C)cn2)c1)C1C(=O)CC(CC(C)C)(CC(C)C)OC1=O (stereo not given) [N-(3-{1-[4-hydroxy-6,6-bis(2-methylpropyl)-2-oxo-5,6-dihydro-2H-pyran-3-yl]propyl}phenyl)-1-methyl-1H-imidazole-4-sulfonamide]	8.52	–
CCC(c1cccc(NS(=O)(=O)c2cn(C)cn2)c1)C1C(=O)CC(CCC2CC2)(CCC2CC2)OC1=O (stereo not given) [N-(3-{1-[6,6-bis(2-cyclopropylethyl)-4-hydroxy-2-oxo-5,6-dihydro-2H-pyran-3-yl]propyl}phenyl)-1-methyl-1H-imidazole-4-sulfonamide]	8.77	–
CCC(c1cccc(NS(=O)(=O)c2cn(C)cn2)c1)C1C(=O)CC2(OC1=O)C1CC3CC(C1)CC2C3 (stereo not given) [N-[3-(1-{4'-hydroxy-3',6'-dihydrospiro[adamantane-2,2'-pyran]-6'-one}propyl)phenyl]-1-methyl-1H-imidazole-4-sulfonamide]	7.64	–
CCCC1(CCC)CC(=O)C(C(c2cccc(NS(=O)(=O)c3cn(C)cn3)c2)C2CC2)C(=O)O1 (stereo not given) [N-[3-[1-(5,6-Dihydro-4-hydroxy-2-oxo-6,6-dipropyl-2H-pyran-3-yl)cyclopropylmethyl]phenyl]-1-methyl-1H-imidazolesulfonamide]	9.28	–
CCCC1(CCC)CC(=O)C(C(CC)c2cccc(NS(=O)(=O)c3cn(C)cn3)c2)C(=O)O1 (stereo not given) [N-[3-[1-(5,6-Dihydro-4-hydroxy-2-oxo-6,6-dipropyl-2H-pyran-3-yl)propyl]phenyl]-1-methyl-1H-imidazolesulfonamide]	8.74	–
CCCC1(CCc2ccccc2)CC(=O)C(C(c2cccc(NS(=O)(=O)c3cn(C)cn3)c2)C2CC2)C(=O)O1 (stereo not given) [N-[3-[1-(5,6-Dihydro-4-hydroxy-2-oxo-6-phenethyl-6-propyl-2H-pyran-3-yl)cyclopropylmethyl]phenyl]-1-methyl-1H-imidazole-4-sulfonamide]	9.15	–
CCCC1(CCC)CC(=O)C(C(c2cccc(NS(=O)(=O)c3cn(C)cn3)c2)C(C)(C)C)C(=O)O1 (stereo not given) [N-[3-{1-(5,6-Dihydro-4-hydroxy-2-oxo-6,6-dipropyl-2H-pyran-3-yl)-2,2-dimethylpropyl)phenyl]-1-methyl-1H-imidazole-4-sulfonamide]	9.06	–
CCCC1(CCc2ccccc2)CC(=O)C(C(c2cccc(NS(=O)(=O)c3cn(C)cn3)c2)C(C)(C)C)C(=O)O1 (stereo not given) [N-[3-{1-(5,6-Dihydro-4-hydroxy-2-oxo-6-phenethyl-6-propyl-2H-pyran-3-yl)-2,2-dimethylpropyl)phenyl]-1-methyl-1H-imidazole-4-sulfonamide]	8.92	–
CCC(c1cccc(NS(=O)(=O)c2cn(C)cn2)c1)C1C(=O)CC(COCCOCCOC)(COCCOCCOC)OC1=O (stereo not given) [N-[3-{1-(5,6-Dihydro-4-hydroxy-2-oxo--6,6-bis((2-(2-methoxyethoxy)ethoxy)methyl)-2H-pyran-3-yl)propyl}phenyl]-1-methyl-1H-imidazole-4-sulfonamide]	7.55	–
CCCC1(CCc2ccc(F)cc2)CC(=O)C(C(CC)c2cccc(NS(=O)(=O)c3cn(C)cn3)c2)C(=O)O1 (stereo not given) [N-[3-{1-(5,6-Dihydro-4-hydroxy-2-oxo--6-(2-(4-fluorophenyl)ethyl)-6-propyl-2H-pyran-3-yl)propyl}phenyl]-1-methyl-1H-imidazole-4-sulfonamide]	8.52	–
